In brackets after ≈: the same amount, converted by molar mass. Several values for one entry are separate records, joined by “and”; a condition that tells them apart may be missing. Equal entries are not always repeated. Where two headings read alike, the source gives them in different places.
Tests used:
[1] = system: oncogenic transcription; set-up: method as in PMID 20977459; details: cited from earlier work
[2] = system: patients with advanced solid tumors; assay: cardiac adverse events in the QT evaluation study; assay type: in vivo, human
Method: Cardiac adverse events (AEs) observed in the period of this QT evaluation study were evaluated and graded according to the National Cancer Institute Common Terminology Criteria for Adverse Events (NCI-CTCAE), v.4 and coded using the Medical Dictionary for Regulatory Activities (MedDRA) v.16.0. Laboratory results of particular relevance (i.e., changes in albumin, calcium, potassium, or magnesium) were graded according to the NCI-CTCAE v.4.

[3] = set-up: method as in data on file; details: ref data on file; cited from earlier work
[4] = system: patients with advanced solid tumors; assay: concentration-ΔQTcF linear mixed-effects modelling; assay type: in vivo, human
Method: C–ΔQTcF was assessed using a linear mixed-effects (LME) model, as proposed by Garnett et al.. As the data available came from a single arm study, the LME model was characterized by the intercept ( θ1 ) and the slope ( θ2 ), and their corresponding variabilities.1 ΔQTcFij=θ1·e^η1,i+θ2·e^η2,i·Cij+θ3·Cycle+ϵij, where Cij is the model-predicted lurbinectedin total plasma concentrations (or the lurbinectedin concentrations in the effect compartment if a hysteresis is present), and η1,i and η2,i are the random effects associated with the intercept term θ1 and the slope term θ2 , respectively, and are assumed to be exponential, independent, and normally distributed. Furthermore, ϵij is the random residual variability, assumed to be an additive, independent, and normally distributed random variable. In the absence of placebo data, the unstructured placebo model consisting on the fixed effect parameters accounting for treatment-specific intercept (TRT), mean ΔQTcF at each time point evaluated (TIME), and baseline QTc was not included in the model. Based on the fact that ECG and PK assessments in this study were performed on two occasions (cycle 1 and cycle 2), the effect of cycle θ3 was also assessed in the models. To select the model for the C-ΔQTcF analysis (i.e., direct or indirect), a potential delay of the ΔQTcF effect relative to plasma concentrations (hysteresis) was graphically and statistically assessed, as proposed by Darpo et al.. To enable an adequate comparison of the model fit between the direct effect model and the effect compartment model, the model-based predicted total plasma concentrations at central compartment (“direct” model) and at the effect compartment (“indirect” model) were used. These were based on the individual PK parameters, obtained through a maximum a posteriori estimation based on the individual total plasma concentration available for each subject and a population PK model previously developed.
The assumption of linearity of the C–ΔQTcF relationship was assessed by goodness-of-fit plots. Besides, a model with an empirical quadratic term of total plasma concentration was fitted and the significance of the quadratic term was tested. In case of the absence of trends in the goodness-of-fit plots and a non-significant quadratic term, the C–∆QTcF relationship was considered linear; otherwise, the relationship was considered non-linear.
The predicted effect of lurbinectedin on ΔQTcF was estimated at the Cmax geometric mean either at the central or at the effect compartment in the first two cycles following the administration of 3.2 mg/m^2 i.v. over 1-h q3wk and was calculated as the estimated intercept ( θ1,Est ) plus the product of the estimated slope ( θ2,Est ) and geometric mean Cmax ( C ):2 EstimatedMeanΔQTcFC=θ1,Est+C×θ2,Est.
Two-sided 90% confidence intervals (CIs) of the estimated ΔQTcF were computed from Eqs. 3 and 4:3 EstimatedSE=varθ1,Est+C^2varθ2,Est+2Ccovθ1,Estθ2,Est 4 90%CI=EstimatedMeanΔQTcC±t0.95,DF×EstimatedSE, where varθ1,Est is the variance of the intercept, varθ2,Est is the variance of the slope, and covθ1,Estθ2,Est is the covariance of intercept and slope; t is the critical value determined from the t-distribution; DF is the degrees of freedom; SE is the standard error; and CI is the confidence interval.
To exclude a prolongation of QT for lurbinectedin assuming that there is no placebo effect, the upper bound (UB) of the 2-sided 90% CI of the model-predicted mean ΔQTcF had to be lower than 10 ms (threshold set at the ICH E14 Q&A R3 [11]), at the Cmax geometric mean obtained after administration of the clinically relevant dose of 3.2 mg/m^2 i.v. over 1-h q3wk.
The Cmax geometric mean either at the central or at the effect compartment, at which UB 90% CI of the model-predicted mean ΔQTcF would be above 10 ms and 20 ms thresholds, was also estimated according to the formulas provided above.

[5] = system: hERG; set-up: method as in data on file; details: ref data on file; cited from earlier work
[6] = system: cynomolgus monkeys; set-up: method as in data on file; details: single i.v. bolus at maximum tolerated dose, ref data on file; cited from earlier work
[7] = system: cytochrome P450 (CYP) 3A; set-up: method as in data on file; details: in vitro studies; ref data on file; cited from earlier work
[8] = system: patients; set-up: method as in PMID 24563480; details: cited from earlier work
[9] = cited from earlier work
[10] = system: telemetered dogs; set-up: method as in data on file; details: single i.v. bolus at maximum tolerated dose, ref data on file; cited from earlier work

Structure (SMILES): COc1ccc2[nH]c3c(c2c1)CCN[C@]31CS[C@@H]2c3c(OC(C)=O)c(C)c4c(c3[C@H](COC1=O)N1[C@@H]2[C@H]2c3c(cc(C)c(OC)c3O)C[C@@H]([C@@H]1O)N2C)OCO4 [lurbinectedin, Lurbinectedin]
- in vitro activity [1]: low nanomolar range
- cardiac safety findings ([2]; QT evaluation study period): No relevant cardiac safety findings
- adverse events suggestive of proarrhythmic potential ([2]; in vivo): No adverse events suggestive of proarrythmic potential
- protein binding [3]: highly protein-bound
- Cmax at the effect compartment associated with 10 ms UB 90% CI of ΔQTcF ([4]; delayed effect model): 36.18 ng/mL
- Cmax at the effect compartment associated with 20 ms UB 90% CI of ΔQTcF ([4]; delayed effect model): 61.94 ng/mL
- dose corresponding to 10 ms UB 90% CI of ΔQTcF ([4]; delayed effect model): 3.8 mg/m^2
- dose corresponding to 20 ms UB 90% CI of ΔQTcF ([4]; delayed effect model): 6.5 mg/m^2
- fold increase over recommended dose Cmax at 10 ms threshold ([4]; delayed effect model): 1.21 fold
- fold increase over recommended dose Cmax at 20 ms threshold ([4]; delayed effect model): 2.03 fold
- Cmax associated with 10 ms UB 90% CI of ΔQTcF ([4]; direct effect model): 129.05 ng/mL
- Cmax associated with 20 ms UB 90% CI of ΔQTcF ([4]; direct effect model): 241.25 ng/mL
- dose corresponding to 10 ms UB 90% CI of ΔQTcF ([4]; direct effect model): 3.6 mg/m^2
- dose corresponding to 20 ms UB 90% CI of ΔQTcF ([4]; direct effect model): 6.6 mg/m^2
- Cmax (central compartment) ([4]; direct effect model, recommended dose): 116.62 ng/mL
- Slope of C-ΔQTcF ([4]; final delayed effect (effect compartment) model): 0.289 L·ms/µg
- Keo, equilibration rate constant ([4]; final delayed effect model): 0.298 h⁻¹
- Slope of C-ΔQTcF ([4]; final direct model): 0.072 L·ms/µg
- IC50 [5]: 8.8 µM
- IC50 hERG [5]: 6.9 µg/mL (≈ 8.79 µM)
- cardiovascular changes [6]: mild decreases in blood pressure and increased heart rate
- effects on lead II ECG variables (PR, QT, QTcF, QTcV, QRS), ECG gross morphology, cardiac rhythm [6]: No effects were observed
- role of metabolism by CYP3A in clearance [7]: major clearance mechanism
- most common limiting toxicity [8]: myelosuppression, particularly neutropenia
- population estimate for total plasma clearance ([9]; 1-h i.v. infusion, cancer patients): 11.2 L/h
- extraction ratio [9]: 0.19
- inter-individual variability of all PK parameters [9]: 20.9 to 51.2%
- population estimate of apparent volume at steady state [9]: 438 L and 438.4 L
- reduction of clearance ([9]; co-administration of CYP3A inhibitors): 30%
- blood CL ([9]; corresponding to plasma clearance): ~ 17 L/h
- reduction of clearance ([9]; high C-reactive protein): 20%
- reduction of clearance ([9]; high α-1-acid glycoprotein): 28%
- reduction of clearance ([9]; low albumin): 20%
- cardiovascular changes [10]: mild decreases in blood pressure and increased heart rate
- effects on lead II ECG variables (PR, QT, QTcF, QTcV, QRS), ECG gross morphology, cardiac rhythm [10]: No effects were observed

From article PMC7801313, “Effect of lurbinectedin on the QTc interval in patients with advanced solid tumors: an exposure–response analysis” (Cancer Chemotherapy and Pharmacology, 2020)
